Assay results published in ChEMBL document CHEMBL4152366, “Design, synthesis, and biological evaluation of novel selective peptide inhibitors of 11β-hydroxysteroid dehydrogenase 1” (Bioorg Med Chem, 2018).

Legend:
[1] = biological target: T1, 11-beta-hydroxysteroid dehydrogenase 1 (Homo sapiens, UniProt P28845); assay: Inhibition of 11beta-HSD1 in human primary keratinocytes assessed as reduction in conversion of […] incubated for 48 hrs by enzyme immunoassay; type: cell-based
Target sequence in this assay (P28845 whole entry, looked up): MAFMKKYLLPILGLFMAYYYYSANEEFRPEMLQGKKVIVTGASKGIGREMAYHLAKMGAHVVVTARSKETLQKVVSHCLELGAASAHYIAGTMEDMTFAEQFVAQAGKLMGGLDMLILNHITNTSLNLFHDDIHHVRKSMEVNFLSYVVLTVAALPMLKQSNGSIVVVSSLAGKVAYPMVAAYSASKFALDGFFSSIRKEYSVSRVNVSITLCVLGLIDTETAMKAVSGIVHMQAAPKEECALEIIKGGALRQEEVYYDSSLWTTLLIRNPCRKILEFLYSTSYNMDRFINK

[2] = biological target: T1, 11-beta-hydroxysteroid dehydrogenase 1; assay: Inhibition of human 11beta-HSD1 expressed in HEK293 cell lysates using radiolabeled cortisone as substrate incubated for 10 mins by scintillation counting method
Target sequence in this assay (P28845 whole entry): as the sequence (P28845 whole entry, looked up) above

[3] = biological target: T2, 17-beta-hydroxysteroid dehydrogenase type 1 (Homo sapiens) (UniProt P14061); assay: Inhibition of human 17beta-HSD1 expressed in HEK293 cell lysates assessed as remaining enzyme activity at 1 uM using radiolabeled estrone as substrate incubated for 10 mins by scintillation counting method relative to control; values are per cent of control
T2 sequence (whole entry): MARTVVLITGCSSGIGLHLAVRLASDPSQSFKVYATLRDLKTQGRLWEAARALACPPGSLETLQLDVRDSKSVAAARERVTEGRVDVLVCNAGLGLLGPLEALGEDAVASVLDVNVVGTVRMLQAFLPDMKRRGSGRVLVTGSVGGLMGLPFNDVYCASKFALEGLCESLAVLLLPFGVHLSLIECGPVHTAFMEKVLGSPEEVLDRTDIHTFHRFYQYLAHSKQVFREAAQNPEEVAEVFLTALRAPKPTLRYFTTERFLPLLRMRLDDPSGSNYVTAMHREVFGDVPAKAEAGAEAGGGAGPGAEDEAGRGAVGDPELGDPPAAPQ

[4] = biological target: T3, 17-beta-hydroxysteroid dehydrogenase type 2 (Homo sapiens) (UniProt P37059); assay: Inhibition of human 17beta-HSD2 expressed in HEK293 cell lysates assessed as remaining enzyme activity at 1 uM using radiolabeled estradiol as substrate incubated for 10 mins by scintillation counting method relative to control; values are per cent of control
T3 sequence (whole entry): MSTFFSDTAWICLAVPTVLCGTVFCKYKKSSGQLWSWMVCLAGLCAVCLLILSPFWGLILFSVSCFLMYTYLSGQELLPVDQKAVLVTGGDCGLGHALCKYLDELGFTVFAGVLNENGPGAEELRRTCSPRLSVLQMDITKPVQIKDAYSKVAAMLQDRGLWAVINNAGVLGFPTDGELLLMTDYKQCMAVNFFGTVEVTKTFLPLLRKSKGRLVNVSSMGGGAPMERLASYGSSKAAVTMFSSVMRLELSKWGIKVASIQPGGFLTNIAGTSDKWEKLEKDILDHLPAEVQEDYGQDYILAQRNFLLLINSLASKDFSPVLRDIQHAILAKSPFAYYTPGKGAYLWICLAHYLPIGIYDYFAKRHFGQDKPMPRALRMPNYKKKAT

[5] = biological target: T4, 11-beta-hydroxysteroid dehydrogenase type 2 (Homo sapiens) (UniProt P80365); assay: Inhibition of human 11beta-HSD2 expressed in HEK293 cell lysates assessed as remaining enzyme activity at 1 uM using radiolabeled cortisol as substrate incubated for 10 mins in presence of NAD+ by scintillation counting method relative to control; values are per cent of control
T4 sequence (whole entry): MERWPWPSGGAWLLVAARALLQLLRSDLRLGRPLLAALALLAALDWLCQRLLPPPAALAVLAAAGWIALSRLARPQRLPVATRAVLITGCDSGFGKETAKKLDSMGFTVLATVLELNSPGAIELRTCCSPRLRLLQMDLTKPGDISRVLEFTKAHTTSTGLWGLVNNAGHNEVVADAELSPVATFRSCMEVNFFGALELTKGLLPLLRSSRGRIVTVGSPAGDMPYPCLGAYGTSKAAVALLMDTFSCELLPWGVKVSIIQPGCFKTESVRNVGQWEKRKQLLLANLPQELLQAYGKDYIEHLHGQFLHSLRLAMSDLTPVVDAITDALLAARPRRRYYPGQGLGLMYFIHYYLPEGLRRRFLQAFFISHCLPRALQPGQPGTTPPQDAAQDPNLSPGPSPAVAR

[6] = biological target: T1, 11-beta-hydroxysteroid dehydrogenase 1; assay: Inhibition of 11beta-HSD1 in human skin assessed as reversal of cortisone-mediated decrease in dermal total collagen content at 200 uM by picrosirius red histochemical staining based assay
Target sequence in this assay (P28845 whole entry, looked up): as the sequence (P28845 whole entry, looked up) above

[7] = biological target: T1, 11-beta-hydroxysteroid dehydrogenase 1; assay: Inhibition of 11beta-HSD1 in human skin assessed as reversal of cortisone-mediated decrease in dermal total collagen content at 10 to 100 uM by picrosirius red histochemical staining based assay
Target sequence in this assay (P28845 whole entry, looked up): as the sequence (P28845 whole entry, looked up) above

[8] = biological target: T1, 11-beta-hydroxysteroid dehydrogenase 1; assay: Inhibition of 11beta-HSD1 in human skin assessed as reversal of cortisone-mediated decrease in dermal total collagen content by picrosirius red histochemical staining based assay
Target sequence in this assay (P28845 whole entry, looked up): as the sequence (P28845 whole entry, looked up) above

Structure (SMILES): CC(=O)N[C@@H](Cc1ccc(F)cc1)C(=O)N1CCC[C@@H]1C(=O)NC1C2CC3CC(C2)CC1C3 (stereo partly drawn)
- inhibition [1]: Dose-dependent effect
- IC50 [2]: 266 nM
- residual activity [3]: > 90%
- residual activity [4]: > 90%
- residual activity [5]: > 90%

Structure (SMILES): CC(=O)N[C@@H](Cc1ccc(C#N)cc1)C(=O)N1CCC[C@@H]1C(=O)NC1C2CC3CC(C2)CC1C3 (stereo partly drawn)
- inhibition [6]: 100%
- inhibition [1]: Dose-dependent effect
- IC50 [2]: 197 nM
- inhibition [7]: 18%
- inhibition [8]: Dose-dependent effect
- residual activity [3]: > 90%
- residual activity [4]: > 90%
- residual activity [5]: > 90%

Structure (SMILES): CCOc1ccc(C[C@H](N)C(=O)N2CCC[C@@H]2C(=O)NC2C3CC4CC(C3)CC2C4)cc1 (stereo partly drawn)
- inhibition [1]: Dose-dependent effect
- IC50 [2]: 373 nM
- residual activity [3]: > 90%
- residual activity [4]: > 90%
- residual activity [5]: > 90%
